A word on the melting point: it is the temperature, or range, at which the solid turns liquid. In general, IC50 refers to the concentration that inhibits the measured activity by half.

The values that follow come from patent publication US7067538B2, “MCP-1 receptor antagonists and methods of use thereof” (Warner-Lambert Company, LLC, priority 2002, dated 2006).

The subject of data set [1] is MCP-1 response in THP-1 cells. The data set is described as follows: Calcium flux in THP-1 cells stimulated with human MCP-1 (FLIPR). It is filed as cell-based. Particulars: read-out: Calcium Flux IC50. Here is the method: Compounds of were evaluated for their effect on calcium flux using methodology known in the art, e.g., Neote et al., Cell 1993, 72:415–425. Briefly, THP-1 cells were incubated with the fluorescence dye FLUO-4 for 1 hour, the cells were washed after this loading period, resuspended in HANKs buffer, and loaded into a 384-well plate. The cells were then incubated in the presence of a compound of Example 1–12, 14, 18, 22–23, 27–28, 30, or [bis-(4-chloro-phenyl)-methanesulfonyl]-acetic acid methyl ester. After a 30-minute incubation period, the cells were stimulated with 33 nM human MCP-1 and the calcium flux response recorded and quantified with a FLIPR^384® (384-well Fluorometric Imaging Plate Reader) ([…], Sunnyvale, Calif.). The IC50's (μM) of the inhibition of the maximal MCP-1 response are set out in Table 1.
For orientation: A change in cytosolic calcium serves as a functional read-out for many receptors and channels.

In data set [2] the target is T1, MCP-1 receptor (300-19 cell membranes) (Homo sapiens, UniProt P41597).
T1 construct: host or cells: 300-19 cells (membrane preparation)
Briefly: Inhibition of binding of 125I-MCP-1 to 300-19 cell membranes. Here is the method:
Compounds were also assayed for their ability to inhibit the binding of radiolabeled MCP-1 to cell membranes. The materials and methods are set out below.
Membrane Preparation. 300-19 cells were harvested by centrifugation and washed with PBS (Dulbecco's phosphate-buffered saline w/o Ca and Mg). Cells were frozen at −80° C. overnight then resuspensed in ice cold lysis buffer (5 mM HEPES, 2 mM EDTA, 10 μg/mL of leupeptin, aprotinin, and chymostatin, and 200 μg/mL PMSF). The cell suspension was centrifuged at 1,000 rpm for 10 minutes and the supernatant was transferred and centrifuged at 14,000 rpm for 45 minutes at 4° C. then discarded. The resulting pellet was resuspended in stock buffer (10 mM HEPES, 300 mM sucrose, 20 μg/mL of leupeptin, aprotinin, and chymostatin, and 200 μg/mL PMSF), aliquoted, and frozen at −80° C. until use. Typical binding assays used 1.0 μg/well protein.
Prepared membranes were resuspended in binding buffer (50 mM Tris, 10 mM MgCl2, 1 mM EDTA pH 7.4) at 10 μg/mL protein. Membranes (1.0 μg/well) were incubated with ^125I-MCP-1 (0.15 nM) in the absence or presence of unlabeled chemokine (465 nM) or a compound of Examples 1–11, 14, 16, 19, 22, 27–30, 33–34, or [bis-(4-chloro-phenyl)-methanesulfonyl]-acetic acid methyl ester (0.001 μM–40 μM) for 3 hours at room temperature in a 96-well plate (total volume 250 μL). The reaction was terminated by filtration using a 96-well plate harvester (Packard Filtermate 196 Harvester). Filters (Packard GF/C) were prewet with 0.3% PEI containing 0.5% BSA and washed 5 times with wash buffer (DPBS, 0.3 MnCl2, and 0.25% BSA) prior to reaction termination. After terminating the reaction, filters were washed 6 times with wash buffer, and allowed to dry overnight. Scintillation fluid (Packard's Micro Scint 20) was added to each well and radioactivity bound was determined by liquid scintillation spectrometry. Nonspecific binding was determined in the presence of 465 nM unlabeled MCP-1. The IC50's (μM) of the inhibition of the binding of the iodinated MCP-1 are set out in Table 2.

[3] abbreviates: 0.5 h, THP-1 cells, 30-minute incubation, stimulated with 33 nM human MCP-1, inhibition of the maximal MCP-1 response.
The mark [4] stands for this setting: 300-19 cell membranes 1.0 μg/well, 125I-MCP-1 0.15 nM, 3 hours at room temperature, read-out: IC50 of the inhibition of the binding of the iodinated MCP-1.

Like-named read-outs stand apart in the source and are kept apart here.

T1 sequence (P41597 whole entry): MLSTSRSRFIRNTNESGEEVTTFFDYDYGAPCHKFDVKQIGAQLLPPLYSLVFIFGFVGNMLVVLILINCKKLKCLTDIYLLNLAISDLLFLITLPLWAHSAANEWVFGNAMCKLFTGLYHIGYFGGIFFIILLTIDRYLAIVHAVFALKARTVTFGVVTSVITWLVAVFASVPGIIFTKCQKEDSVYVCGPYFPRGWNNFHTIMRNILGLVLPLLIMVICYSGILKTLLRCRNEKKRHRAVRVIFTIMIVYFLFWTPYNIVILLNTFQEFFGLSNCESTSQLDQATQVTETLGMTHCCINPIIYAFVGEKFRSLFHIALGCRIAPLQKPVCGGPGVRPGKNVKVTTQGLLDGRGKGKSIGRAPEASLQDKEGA

For the compound `O=C(COc1ccc(F)cc1F)CS(=O)(=O)C(c1ccc(Cl)cc1)c1ccc(Cl)cc1`, the melting point is 54 to 56 °C.

As for `C/C=C/C(=O)CS(=O)(=O)C(c1ccc(Cl)cc1)c1ccc(Cl)cc1`, the melting point lay within 114 to 116 °C.

On to `CN(C)C(=O)c1ccc(C(=O)CSC(c2ccc(Cl)cc2)c2ccc(Cl)cc2)s1`, for which the melting point was in the range of 150 to 151 °C.

The compound `CC(C)(C)C(=O)CS(=O)(=O)C(c1ccc(Cl)cc1)c1ccc(Cl)cc1` came in with a melting point of 128 to 130 °C.

On to `O=C(CCc1ccccc1)CS(=O)(=O)C(c1ccc(Cl)cc1)c1ccc(Cl)cc1`, for which the melting point is 106 to 107 °C.

On to `CC(=O)CCS(=O)(=O)C(c1ccc(Cl)cc1)c1ccc(Cl)cc1`, for which the melting point lay within 103 to 105 °C.

`CC(=O)OCC(=O)CS(=O)(=O)C(c1ccc(Cl)cc1)c1ccc(Cl)cc1`: the melting point was 57 to 60 °C.

Consider `O=C(CC(F)(F)F)CS(=O)(=O)C(c1ccc(Cl)cc1)c1ccc(Cl)cc1`, for which the melting point fell in the range of 48 to 50 °C.

As to `CC(C)Cc1ccc(C(c2ccc(Cl)cc2)S(=O)(=O)CC(=O)C(F)(F)F)cc1` (stereo not shown), the melting point fell in the range of 45 to 50 °C.

In turn, `CC(=O)CS(=O)(=O)C(c1ccc(Cl)cc1)c1ccc(Cl)cc1` [Example 1, 1-[Bis-(4-chloro-phenyl)-methanesulfonyl]-propan-2-one] yielded a melting point of 114 to 115 °C. The IC50 in data set [1] (Homo sapiens, THP-1, 0.5 h) was 2.2 µM. For the same compound, the IC50 in data set [2] was found to be 1.15 µM.

Turning to `CCC(=O)CS(=O)(=O)C(c1ccc(Cl)cc1)c1ccc(Cl)cc1` [Example 2, 1-[Bis-(4-chloro-phenyl)-methanesulfonyl]-butan-2-one], the IC50 in data set [1] (Homo sapiens, THP-1, 0.5 h) is 7.65 µM; in data set [2], 7.37 µM.

Compound `O=C(CBr)CS(=O)(=O)C(c1ccc(Cl)cc1)c1ccc(Cl)cc1` [Example 3, 1-[Bis-(4-chloro-phenyl)-methanesulfonyl]-3-bromo-propan-2-one] displayed a melting point of 122 to 123 °C. Besides, in data set [1] (setting [3]), the IC50 came out at 1.12 µM. The IC50 in data set [2] (setting [4]) is 0.165 µM.

Regarding `O=C(CS(=O)(=O)C(c1ccc(Cl)cc1)c1ccc(Cl)cc1)c1ccco1` [Example 5, 2-[Bis-(4-chloro-phenyl)-methanesulfonyl]-1-furan-2-yl-ethanone], the melting point is 138 to 139 °C. For the same compound, the IC50 in data set [1] (setting [3]) amounted to 7.25 µM. For the same compound, the IC50 in data set [2] (setting [4]) was found to be 2.55 µM.

As for `CC#CC(=O)CS(=O)(=O)C(c1ccc(Cl)cc1)c1ccc(Cl)cc1` [Example 6, 1-[Bis-(4-chloro-phenyl)-methanesulfonyl]-pent-3-yn-2-one], the IC50 in data set [1] (setting [3]) is 1.34 µM.

The compound `O=C(Cc1ccccc1)CS(=O)(=O)C(c1ccc(Cl)cc1)c1ccc(Cl)cc1` [Example 9, 1-[Bis-(4-chloro-phenyl)-methanesulfonyl]-3-phenyl-propan-2-one] returned a melting point of 54 to 56 °C. The IC50 in data set [1] (setting [3]) stood at 2.9 µM. Also, the IC50 in data set [2] (setting [4]) was 6.3 µM.

Regarding `O=C(COc1ccccc1)CS(=O)(=O)C(c1ccc(Cl)cc1)c1ccc(Cl)cc1` [Example 10, 1-[Bis-(4-chloro-phenyl)-methanesulfonyl]-3-phenoxy-propan-2-one], the melting point fell in the range of 110 to 112 °C. Besides, the IC50 in data set [1] (setting [3]) was 0.984 µM. Also, the IC50 in data set [2] (setting [4]) was found to be 3.45 µM.

Turning to `COc1ccc(OCC(=O)CS(=O)(=O)C(c2ccc(Cl)cc2)c2ccc(Cl)cc2)cc1` [Example 11, 1-[Bis-(4-chloro-phenyl)-methanesulfonyl]-3-(4-methoxy-phenoxy)-propan-2-one], the melting point lay within 116 to 117 °C. Further, in data set [1] (setting [3]), the IC50 turned out to be 4.75 µM. For the same compound, in data set [2] (setting [4]), the IC50 worked out at 3.4 µM.

The compound `O=C(COc1ccc(Cl)cc1)CS(=O)(=O)C(c1ccc(Cl)cc1)c1ccc(Cl)cc1` [Example 12, 1-[Bis-(4-chloro-phenyl)-methanesulfonyl]-3-(4-chloro-phenoxy)-propan-2-one] returned a melting point of 105 to 107 °C. Further, the IC50 in data set [1] (setting [3]) came to 8.15 µM.

On to `COCC(=O)CS(=O)(=O)C(c1ccc(Cl)cc1)c1ccc(Cl)cc1` [Example 14, 1-[Bis-(4-chloro-phenyl)-methanesulfonyl]-3-methoxy-propan-2-one], for which the melting point fell in the range of 124 to 125 °C. For the same compound, the IC50 in data set [1] (Homo sapiens, THP-1, 0.5 h) was 3.9 µM. The same compound came in with an IC50 in data set [2] of 1.35 µM.

The compound `Cn1ccnc1C(=O)CS(=O)(=O)C(c1ccc(Cl)cc1)c1ccc(Cl)cc1` [Example 16, 2-[Bis-(4-chloro-phenyl)-methanesulfonyl]-1-(1-methyl-1H-imidazol-2-yl)-ethanone] came in with a melting point of 160 to 161 °C. For the same compound, in data set [2] (setting [4]), the IC50 came to 12.7 µM.

Compound `CN(C)C(=O)c1ccc(C(=O)CS(=O)(=O)C(c2ccc(Cl)cc2)c2ccc(Cl)cc2)s1` [Example 18, 5-(2-[Bis-(4-chloro-phenyl)-methanesulfonyl]-acetyl)-thiophene-2-carboxylic acid dimethylamide] had a melting point of 192 to 194 °C. Besides, the IC50 in data set [1] (setting [3]) stood at 5.2 µM.

On to `O=C(CS(=O)(=O)C(c1ccc(Cl)cc1)c1ccc(Cl)cc1)c1cccs1` [Example 19, 2-[Bis-(4-chloro-phenyl)-methanesulfonyl]-1-thiophen-2-yl-ethanone], for which the melting point lay in the range of 150 to 151 °C. Besides, the IC50 in data set [2] (setting [4]) worked out at 6.15 µM.

For `COC(=O)CC(=O)CS(=O)(=O)C(c1ccc(Cl)cc1)c1ccc(Cl)cc1` [Example 22, 4-[Bis-(4-chloro-phenyl)-methanesulfonyl]-3-oxo-butyric acid methyl ester], the melting point is 76 to 78 °C. For the same compound, in data set [1] (setting [3]), the IC50 turned out to be 2.47 µM. Further, the IC50 in data set [2] (setting [4]) came out at 1.27 µM.

`O=C(CC(=O)Nc1ccccc1Cl)CS(=O)(=O)C(c1ccc(Cl)cc1)c1ccc(Cl)cc1` [Example 23, 4-[Bis-(4-chloro-phenyl)-methanesulfonyl]-N-(2-chloro-phenyl)-3-oxo-butyramide]: the melting point lay in the range of 92 to 95 °C. Also, the IC50 in data set [1] (setting [3]) was 1.52 µM.

Take `O=C(CS(=O)(=O)Cc1ccccc1)CS(=O)(=O)C(c1ccc(Cl)cc1)c1ccc(Cl)cc1` [Example 27, 1-[Bis-(4-chloro-phenyl)-methanesulfonyl]-3-phenylmethanesulfonyl-propan-2-one]: the melting point was 72 to 90 °C. Also, the IC50 in data set [1] (setting [3]) came out at 6.53 µM. In data set [2] (setting [4]), the IC50 is 2.7 µM.

Consider `O=S(=O)(CC(O)(O)C(F)(F)F)C(c1ccc(F)cc1)c1ccc(F)cc1` [Example 28, 3-[Bis(4-fluorophenyl)methanesulfonyl]-1,1,1-trifluoropropane-2,2-diol], for which the IC50 is 0.417 µM in data set [1] (Homo sapiens, THP-1, 0.5 h) and 0.21 µM in data set [2].

For `O=S(=O)(CC(O)(O)C(F)(F)F)C(c1ccc(C(F)(F)F)cc1)c1ccc(C(F)(F)F)cc1` [Example 29, 3-[Bis(4-trifluoromethyl-phenyl)methanesulfonyl]-1,1,1-trifluoropropane-2,2-diol], the IC50 in data set [2] (setting [4]) is 3 µM.

On to `O=S(=O)(CC(O)(O)C(F)(F)F)C(c1ccc(Cl)cc1)c1ccc(Cl)c(Cl)c1` (stereo not shown) [Example 30, 3-[(4-Chlorophenyl)-(3,4-dichlorophenyl)methanesulfonyl]-1,1,1-trifluoropropane-2,2-diol], for which the IC50 stood at 0.393 µM in data set [1] (setting [3]) and 0.077 µM in data set [2] (setting [4]).

As to `O=C(Cc1ccc(F)cc1)CS(=O)(=O)C(c1ccc(Cl)cc1)c1ccc(Cl)cc1` [Example 33, 1-[Bis-(4-chloro-phenyl)-methanesulfonyl]-3-(4-fluoro-phenyl)-propan-2-one], the melting point was 106 to 107 °C. Also, the IC50 in data set [2] (setting [4]) was found to be 14.5 µM.

`O=C(CS(=O)(=O)C(c1ccc(Cl)cc1)c1ccc(Cl)cc1)c1ccccn1` [Example 34, 2-[Bis-(4-chloro-phenyl)-methanesulfonyl]-1-pyridin-2-yl-ethanone] had a melting point of 120 to 121 °C. In data set [2] (setting [4]), the IC50 stood at 4.25 µM.
